Here are results for one compound from patent publication US20070082819A1 (priority 2003, published 2007).

This experiment concerns eight representative weed species. Particulars: in vivo.

Each structure is given as a SMILES string.

Turning to `CCCC[N+](CCCC)(CCCC)CCCC.[Br-]` [Tetrabutylammonium hyrobromide, tetrabutylammonium bromide], the “Mean Activity (%)” value turned out to be 72%.
